In patent publication US8859587B2, “(2E)-3-phenyl-N-[2,2,2-Trifluoro-1-[[8-quinolineamino)thiomethyl]amino]ethyl]-2-acrylamide and pharmaceutical uses thereof” (Chinese PLA General Hospital, priority 2010, dated 2014):
“And” between values parts separate entries of the source, which are not always exact repeats. Equal values may be shown once. Marks after values point to notes of the source that are not given here.

What was measured:
Format in all cases: cell-based, Wistar rats
[1] = tested on: cardiac muscle cells induced by Tunicamycin (TM); experiment: Survival rate of TM-induced cardiac muscle cells detected by MTT method; details: TM 5 μg/ml alone, MTT
Method: The separation and culture of cardiomyocyte refer to the method of differential adhesion separation (Kreider, A. Messing, H. Doan, S. U. Kim, R. P. Lisak and D. E. Pleasure, Enrichment of Schwann cell cultures from neonatal rat sciatic nerve by differential adhesion, Brain Res 2 (1981), pp. 433-444.), Wistar neonate rats newly born within 24 h were used to obtain primary cardiac muscle cells.
The separated cardiac muscle cells were inoculated in an amount of 10^4 cells per well to a 96-well plate, and the volume of each well was 100 μl (marginal wells were filled with sterile PBS). […] After continuous inoculation, each well was added with 20 μl of MTT solution (5 mg/ml, formulated with PBS (pH=7.4), i.e., 0.5% MTT), and the cultivation was continued for 4 h. After the end of cultivation, culture medium in wells was carefully sucked out. Each well was added with 150 μl of DMSO, shaken at a low speed in a shaking table for 10 min, so that the crystal was sufficiently dissolved. The optical density (OD) value of each well was measured at wavelength of 490 nm by enzyme-linked immunoassay instrument, and each well was repeatedly measured for 3 times and the results were recorded. The cell survival rate at each time point was calculated according to: […], and a cell growth curve was drawn by using time as abscissa and optical density as ordinate.

[2] = tested on: caspase-12 and cleaved caspase-12; experiment: Western blot of caspase-12 and cleaved caspase-12 in TM-induced cardiac muscle cells; details: TM 5 μg/ml induction alone
Method: (12000 rpm×10 min), collected supernatant. Nitrocellulose membrane was dipped in a transferring buffer for 15-20 min in advance. Sampled in 50 μg protein/lane, subjected to 10% polyacrylamide gel SDS-PAGE electrophoretic separation, the gel was then tiled in electrotransferring clamp, in which sponge, filter paper, gel, nitrocellulose membrane, filter paper and sponge were mounted from negative electrode to positive electrode in order. Constant current 350 mA, electrotransferred for 45 min. Electrotransferring membrane to […], the nitrocellulose membrane was taken out, the membrane was washed with TBST for 2 min, sealed with 5% defatted milk powder at room temperature for 1 h, added with first antibody (1:1000) and incubated at 4° C. overnight, the membrane was washed with TBST, 3 times×5 min, then […] second antibody was added, incubated at room temperature for 1 h, washed with TBST, 3 times×5 min, soaked separately with TSM1 and TSM2 for 5 min and 10 min, developed with chromogenic substrates 6.6 μl NBT and 3.3 μl BCIP dissolved in 1 ml of TSM2, after bonds become clear, the reaction was terminated by washing with water. After the end of development, the records were stored by scanning or taking photos.

[3] = tested on: primary cardiac muscle cells induced by TM; experiment: Cardiomyocyte apoptosis induced by TM, AnnexinV-FITC flow cytometer; details: TM 5 μg/ml alone, 24 h
Method: (§1) The primary cardiac muscle cells obtained by the method according to the culture method of primary cardiac muscle cells of Example 1 were added with tunicamycin (TM) on the 4th day to perform interference test. The cells were randomly divided into 5 groups: solvent control group (DMSO), TM interference group (5 μg/ml), Compound of Formula I+TM interference group (10 μM+5 μg/ml), Compound of Formula I interference group ([…]+5 μg/ml), Compound of Formula I interference group ([…]+5 μg/ml).
it is 24 h after drug interference, the cells were treated by the method of AnnexinV-FITC apoptosis kit, and the apoptosis was detected within 1 h by using a flow cytometer (BD ACScalibur, US Becton-Dickinson Company). For each sample, 14000 cells were collected and analyzed, the test was repeated for 3 times, and the average value was used as a result.

[4] = tested on: primary cardiac muscle cells induced by TM; experiment: Cardiomyocyte apoptosis induced by TM, TUNEL detection; details: TM 5 μg/mL alone, 24 h, n = 6
Method: as §1
It was 24 h after drug interference, the apoptotic cells were detected by terminal deoxynucleotidyl transferase-mediated biotinylated UTP nick end labeling (TUNEL) method, and the cells were treated according to the specification of kit. The cells treated with 0.1 mg/ml DNase I and growing on a glass slide were used as positive control. 5 or more visual fields were randomly selected under light microscope, the apoptotic cells (brown yellow granules seen in nucleus) among the cells were counted. Apoptosis rat=(number of positively stained nuclei/number of all nuclei)×100%.

Substance: Tunicamycin [TM, reference compound]
- Cell survival rate (%) [1]: 58.8699 ± 10.7785 %
- expression of Cleaved caspase-12 [2]: obviously expressed
- Cardiomyocyte apoptosis rate detected by flow cytometer (%) [3]: 29.98% and 29.98 ± 1.22^a %
- TUNEL detection (%) cardiomyocyte apoptosis rate [4]: 30.84 ± 1.26 ^a %
